# Reference: patent US20230086703A1, “N-(4-(5-chloropyridin-3-yl)phenyl)-2-(2-(cyclopropanesulfonamido)pyrimidin-4-yl) butanamide derivatives and related compounds as human CTPS1 inhibitors for the treatment of proliferative diseases” (Step Pharma S.A.S., priority 2019, published 2023)
# Biological target: T1, human CTPS1 (Homo sapiens, UniProt P17812)
# T1 construct: FLAG (with GG linker); His8 (with GG linker); purchased Proteros biostructures GmbH
# T1 sequence (P17812 1-591): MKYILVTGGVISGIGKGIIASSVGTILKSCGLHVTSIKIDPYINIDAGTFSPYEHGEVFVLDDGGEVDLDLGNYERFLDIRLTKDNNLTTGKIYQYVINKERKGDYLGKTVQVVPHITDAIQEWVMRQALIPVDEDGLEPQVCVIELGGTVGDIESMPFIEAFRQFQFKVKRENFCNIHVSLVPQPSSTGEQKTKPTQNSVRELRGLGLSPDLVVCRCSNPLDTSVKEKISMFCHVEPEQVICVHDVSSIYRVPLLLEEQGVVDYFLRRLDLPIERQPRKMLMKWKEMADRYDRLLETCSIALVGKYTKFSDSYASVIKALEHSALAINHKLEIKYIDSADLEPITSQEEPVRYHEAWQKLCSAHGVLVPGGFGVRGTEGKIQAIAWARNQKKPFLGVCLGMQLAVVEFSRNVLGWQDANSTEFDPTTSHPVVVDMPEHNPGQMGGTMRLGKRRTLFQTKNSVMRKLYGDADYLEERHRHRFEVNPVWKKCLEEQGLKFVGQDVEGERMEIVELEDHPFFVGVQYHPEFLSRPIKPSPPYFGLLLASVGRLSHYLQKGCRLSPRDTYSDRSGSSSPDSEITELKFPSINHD
# Test: Human CTPS1 enzyme inhibition, ADP-Glo Max assay
# Assay type: biochemical
# Settings: ADP-Glo Max assay; Table 10; read-out: Human CTPS1 Enzyme Inhibition, IC50 grouped by potency range (CTPS1)
# Procedure, shortened: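 Read-out is ADP-Glo Max luminescence: residual ATP depleted (60 min), then produced ADP converted back to ATP for luciferase detection (60 min). Beforehand, protein and compound were mixed for 10 min at 25 °C in Tris buffer pH 8.0 with MgCl2, Tween-20 and 2 mM L-cysteine. Results expressed as percentage inhibition per concentration.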
row,Structure (SMILES),IC50
1,"CC(C)(C(=O)Nc1ccc(-c2cncc(OC(F)F)c2)cc1F)c1csc(NS(=O)(=O)C2CC2)n1 [T139, 2-(2-(cyclopropanesulfonamido)thiazol-4-yl)-N-(4-(5-(difluoromethoxy)pyridin-3-yl)-2-fluorophenyl)-2-methylpropanamide]",< 0.1 µM
2,"CC(C)(C(=O)Nc1ccc(-c2cnccn2)cn1)c1csc(NS(=O)(=O)C2CC2)n1 [T140, 2-(2-(cyclopropanesulfonamido)thiazol-4-yl)-2-methyl-N-(5-(pyrazin-2-yl)pyridin-2-yl)propanamide]",0.1 to 1 µM
3,"CC(C)(C(=O)Nc1ccc(-c2cncc(OC3CCC3)n2)cn1)c1csc(NS(=O)(=O)C2CC2)n1 [T141, N-(5-(6-cyclobutoxypyrazin-2-yl)pyridin-2-yl)-2-(2-(cyclopropanesulfonamido)thiazol-4-yl)-2-methylpropanamide]",0.1 to 1 µM
4,"CC(C)(C(=O)Nc1ccc(-c2cncc(OC3CC3)n2)cn1)c1csc(NS(=O)(=O)C2CC2)n1 [T142, 2-(2-(cyclopropanesulfonamido)thiazol-4-yl)-N-(5-(6-cyclopropoxypyrazin-2-yl)pyridin-2-yl)-2-methylpropanamide]",< 0.1 µM
5,"CC(C)Oc1cncc(-c2ccc(NC(=O)C(C)(C)c3csc(NS(=O)(=O)C4CC4)n3)nc2)n1 [T143, 2-(2-(cyclopropanesulfonamido)thiazol-4-yl)-N-(5-(6-isopropoxypyrazin-2-yl)pyridin-2-yl)-2-methylpropanamide]",< 0.1 µM
6,"CCC(CC)(C(=O)Nc1ccc(-c2cccnc2)cn1)c1csc(NS(=O)(=O)C2CC2)n1 [T144, N-([3,3′-bipyridin]-6-yl)-2-(2-(cyclopropanesulfonamido)thiazol-4-yl)-2-ethylbutanamide]",0.1 to 1 µM
7,"CCOc1cncc(-c2ccc(NC(=O)C(CC)(CC)c3csc(NS(=O)(=O)C4CC4)n3)nc2)c1 [T145, 2-(2-(cyclopropanesulfonamido)thiazol-4-yl)-N-(5′-ethoxy-[3,3′-bipyridin]-6-yl)-2-ethylbutanamide]",< 0.1 µM
8,"CCCOc1cncc(-c2ccc(NC(=O)C(C)(C)c3csc(NS(=O)(=O)C4CC4)n3)nc2)c1 [T146, 2-(2-(cyclopropanesulfonamido)thiazol-4-yl)-2-methyl-N-(5′-propoxy-[3,3′-bipyridin]-6-yl)propanamide]",0.1 to 1 µM

# Now from value to compound:
row,IC50,Structure (SMILES)
1,< 0.1 µM,"CCC(CC)(C(=O)Nc1ccc(-c2cncc(C(F)(F)F)n2)cn1)c1csc(NS(=O)(=O)C2CC2)n1 [T147, 2-(2-(cyclopropanesulfonamido)thiazol-4-yl)-2-ethyl-N-(5-(6-(trifluoromethyl)pyrazin-2-yl)pyridin-2-yl)butanamide]"
2,0.1 to 1 µM,"CC(C)(C(=O)Nc1ccc(-c2cccnc2)cn1)c1csc(NS(=O)(=O)C2CC2)n1 [T148, N-([3,3′-bipyridin]-6-yl)-2-(2-(cyclopropanesulfonamido)thiazol-4-yl)-2-methylpropanamide]"
3,< 0.1 µM,"COc1cc(-c2cccnc2)ccc1NC(=O)C(C)(C)c1csc(NS(=O)(=O)C2CC2)n1 [T149, 2-(2-(cyclopropanesulfonamido)thiazol-4-yl)-N-(2-methoxy-4-(pyridin-3-yl)phenyl)-2-methylpropanamide]"
4,0.1 to 1 µM,"COc1cc(NC(=O)C(C)(C)c2csc(NS(=O)(=O)C3CC3)n2)ccc1-c1cccnc1 [T150, 2-(2-(cyclopropanesulfonamido)thiazol-4-yl)-N-(3-methoxy-4-(pyridin-3-yl)phenyl)-2-methylpropanamide]"
5,0.1 to 1 µM,"CC(C)(C(=O)Nc1ccc(-c2cccnc2)c(F)c1)c1csc(NS(=O)(=O)C2CC2)n1 [T151, 2-(2-(cyclopropanesulfonamido)thiazol-4-yl)-N-(3-fluoro-4-(pyridin-3-yl)phenyl)-2-methylpropanamide]"
6,0.1 to 1 µM,"CC(C)(C(=O)Nc1ccc(-c2cccnc2)c(C#N)c1)c1csc(NS(=O)(=O)C2CC2)n1 [T152, N-(3-cyano-4-(pyridin-3-yl)phenyl)-2-(2-(cyclopropanesulfonamido)thiazol-4-yl)-2-methylpropanamide]"
